Patent EP4696689A1, “SALT FORM AND CRYSTAL FORM OF CHIRAL HETEROCYCLIC COMPOUND HAVING HEDGEHOG PATHWAY ANTAGONIST ACTIVITY” (Suzhou Kintor Pharmaceuticals, Inc., priority 2023, dated 2024)
Like-named read-outs stand apart in the source and are kept apart here.

Columns and labels:
[1] = solid state stability (XRPD, HPLC, chiral purity); format: physicochemical
Description: The purity test, the dynamic solubility and the stability test are tested by the Agilent 1260/1100 high performance liquid chromatograph, and the analysis conditions and chiral purity test analysis conditions of the high performance liquid chromatography test are respectively as follows.
After placing the amorphous free base and fumarate crystal form F of the compound of formula (I) at 25°C/60% RH and 40°C/75% RH for 1 week, the physical and chemical stability of the sample is detected by XRPD and HPLC (at the same time the chiral purity of the sample is tested). […] Table 4-2 Solid Stability Evaluation Summary

[2] = pharmacokinetic study in mice; details: same dose, intragastric administration
[3] = system: primary extracted medulloblastoma cells; assay: antitumor efficacy against medulloblastoma, subcutaneous xenograft model; format: in vivo, CB-17/SCID mice; details: for Tumor Volume at Day 0 (mm^3): before treatment; for T/C (%) / Tumor Volume at Dosing Endpoint (mm^3) / TGI (%): 17 days; for Tumor Volume at Dosing Endpoint (mm^3): volume on Day 18; for Fold Change in Tumor Volume: Day 18 compared to Day 0; for anti-tumor efficacy compared to the high-dose GDC-0449 (10 mg/kg) group: after 17 days of treatment;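 on all read-outs here: male CB-17/SCID mice bearing subcutaneous tumors, randomized at 150-300 mm^3, tumor volume from caliper diameters as 0.5 × longest × shortest squared, measured twice weekly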
Description: 60 male CB-17/SCID mice (aged 6-8 weeks) were purchased from Shanghai SLAC Laboratory Animal Co., Ltd. Animals were housed in individually ventilated cages (IVCs), with five mice per cage. Housing conditions were as follows: temperature was maintained at 20-26°C; humidity was 30-70%; 12 hours of light and 12 hours of darkness.
CB-17/SCID mice were subcutaneously injected with primary extracted medulloblastoma cells. After 3-4 weeks, a subset of mice developed tumors with volumes ranging from 150 to 300 mm^3.
30 mice with uniform tumor sizes (Coefficient of Variation, CV < 30%, CV = Standard Deviation / Mean) were selected from this group. These mice were selected and randomly divided into five experimental groups according to Table 6-2, with six mice in each group and one group per cage. Drug administration began the day after grouping and lasted for 17 days with a frequency of twice daily (BID). The drug was discontinued after 17 days to observe tumor changes.
During routine examinations, animals were monitored for tumor growth, activity level, food intake, water consumption, weight gain or loss, eye, fur, and any other abnormal behaviors. Animal deaths and clinical abnormalities were recorded. Tumor volume (TV) was measured twice weekly using calipers and calculated using the formula: TV = 0.5a × b^2, wherein a is the longest diameter of the tumor and b is the shortest diameter. Body weight was recorded twice weekly, concurrently with tumor volume measurements.
If the animals' weight subsequently recovered to within a 10% loss compared to baseline, whether to continue the administration was based on the animals' condition. The in vivo experimental for an individual animal or the entire group would be terminated under the following conditions. The animals will be euthanized before death or coma. • ➢ If the animals' health condition deteriorated continuously, causing persistent suffering and is unable to eat or drink. • ➢ If the animal became emaciated, with a body weight loss exceeding 20% compared to the initial administration. • ➢ If the tumor volume of an individual mouse exceeded 3000 mm^3 or the mean tumor volume of the entire group exceeded 2000 mm^3.
All data were analyzed using GraphPad Prism 5.0. P value < 0.05 was considered statistically significant.
Primary tumor cells were extracted from Math1-Cre/Ptch1 ^C/C mice with spontaneous medulloblastoma and subcutaneously inoculated into CB-17/SCID mice to establish a xenograft model of medulloblastoma.

[4] = SCID tumor-bearing mice, i.g. BID × 3 days
in vivo [5] = details: mouse, in vivo, po, 10 mg/kg
Description: The collected plasma samples were subjected to a protein precipitation method by using an organic reagent according to the following method to extract test article in the plasma, and the extracted sample was subjected to quantitative concentration analysis through the LC-MS/MS.
Meanwhile, an accompanying standard curve and quality control samples were prepared for quantitative analysis.
The fumarate salt form F of the compound of formula (I) Group: 50 µL of plasma at each time point was taken, 400 µL of acetonitrile was added, vortex mixing and centrifugation was performed at 10000 rpm for 10 min, and a 200 µL supernatant for LC-MS/MS analysis was taken. Meanwhile, an accompanying standard curve and quality control samples were prepared for quantitative analysis.
According to the plasma drug concentration data obtained through analysis, the main pharmacokinetic parameters were calculated according to the non-atrioventricular model by using Kinetic software (Version 5.0).

[6] = hygroscopicity evaluation by dynamic vapor sorption (DVS); format: physicochemical
Description: The DVS curves were collected on a DVS Intrinsic from SMS (Surface Measurement Systems).The relative humidity at 25°C was corrected with the deliquescence points of LiCl, Mg (NO3)2 and KCl.

[7] = body weight of tumor-bearing mice during treatment; details: for Mean Body Weight at Day 0: before treatment; for Body Weight Change Rate (%) / Mean Body Weight at Dosing Endpoint: 17 days
[8] = dynamic solubility in water and three biological solvents; format: physicochemical; details: 37°C, feed 5 mg/ml, read-out: S: solubility
Description: Finally, the volume is fixed with purified water.
(§1) 0.17 g of sodium dihydrogen phosphate (NaH2PO4, anhydrous), 0.021 g of sodium hydroxide and 0.31 g of sodium chloride were weighed into a 50 mL volumetric flask respectively, about 48 mL of purified water was added for dissolution, the pH was adjusted to exactly 6.5 with 1M hydrochloric acid or 1M sodium hydroxide, and the volume was fixed with purified water. 0.11 g of SIF powder was then added, stirred and sonicated to completely dissolve the powder. The solution can be used only after being placed at room temperature for two hours to reach equilibrium.
as §1, with “0.41 mL” for “0.17 g”, “glacial acetic acid, 0.20” for “sodium dihydrogen phosphate (NaH2PO4, anhydrous), 0.021”, “0.59” for “0.31”, “respectively, and” for “respectively,”, “5.0” for “6.5”, “0.56” for “0.11”
The solubility results of the two samples in SGF, FASSIT and FeSSIF are similar. […] Table 4-1 Summary of the dynamic solubility test results

in vivo [9] = details: rat, po, 10 mg/kg
Description: Solvent A: 0.5% CMC-Na +0.2% Tween80
Preparation method: 5 g of sodium carboxymethyl cellulose (CMC-Na) was accurately weighed, 2 mL of Tween 80 was added, 998 mL of purified water was added, stirred and evenly mixed on a magnetic stirrer, and stored at room temperature.
After administration, blood was taken at different time points through orbit, and the blood samples were placed in a tube containing heparin sodium (as an anticoagulant), centrifuged by a cryocentrifuge and then stored in an environment of -80°C. An appropriate amount of plasma sample (50 µL) was taken into which (200 µL) cold acetonitrile containing the internal standard was added. The plasma protein was precipitated by centrifugation for 10 minutes. Finally, 100 µL of the supernatant was added and diluted with 100 µL of pure water and then injected into an LC-MS/MS system for analysis.
LC-MS/MS analysis method: All samples were analyzed by an LC-MS/MS system of an API 3000 mass spectrometer equipped with an Agilent 1100 series of liquid phase systems (Agilent, Japan). Column: Agilent XORBAX, XDB-C8 (50×2.1mm;3.5µm). Column temperature: room temperature, flow rate: 0.4 mL/min, total running time:7min.
For the quantitative analysis of MS/MS, the API3000 mass spectrometer is operated in the positive ESI mode with multiple reaction monitoring (MRM). All compounds and internal standards were monitored with a dwell time of 200 milliseconds. Other MS/MS parameter settings are as follows: Nebulizer gas (NEB): 12 psi, Gas curtain gas (CUR): 7 psi, Collision gas (CAD): 4 psi, Ion spray voltage: 5000V, Ion source temperature:500 °C. For the transitions of the selected ions, each analyte was tested under the optimal sensitivity clustering potential (DP) and collision energy (CE). Finally, the data were collected and processed using the SCIEX Analyst 1.5.2 data processing software system.
Preparation method: 0.1 g of sodium carboxymethyl cellulose (CMC-Na) was accurately weighed, 20 ml of purified water was added, and ultrasonic stirring was performed to dissolve it to obtain 0.5% CMC-Na.

[10] = suspension competition experiment (thermodynamic stability of fumarate crystal forms); format: physicochemical; details: from room temperature to 50°C
Description: To study the thermodynamic stability relationship among the crystal forms of the fumarate salt, a suspension competition experiment at room temperature and 50°C is performed on the fumarate salt anhydrous crystal forms A, B, C and F. […] Table 3-1 Summary of Suspension Contention Tests

[11] = pH 1.8, simulated gastric fluid, thermodynamic from solid, SGF
[12] = pH 5, thermodynamic from solid, FeSSIF
[13] = pH 6.5, thermodynamic from solid, FaSSIF
[14] = water, thermodynamic from solid, H2O

Structure (SMILES): Cc1cnc(-c2cc(N3CCc4nc(N5CCC(O)CC5)ncc4[C@H]3C)ncc2Cl)c(C)c1 [Fumarate crystal form F]
- Chiral purity (%) ([1]; 25°C/60%RH_1w): 98.6%
- Purity (Area%) ([1]; 25°C/60%RH_1w): 99.7 Area%
- Purity/Initial purity (%) ([1]; 25°C/60%RH_1w): 100.1%
- Chiral purity (%) ([1]; 40°C/75%RH_1w): 98.6%
- Purity (Area%) ([1]; 40°C/75%RH_1w): 99.6 Area%
- Purity/Initial purity (%) ([1]; 40°C/75%RH_1w): 100.0%
- Chiral purity (%) ([1]; Start): 98.6%
- Purity (Area%) ([1]; Start): 99.6 Area%
- Cmax higher than that of the positive drug GDC-0449 [2]: about 1 fold
- Tumor Volume at Day 0 (mm^3) ([3]; 1 mg/kg group): 220.5 ± 43.7 mm^3
- Tumor Volume ([3]; 1 mg/kg i.g. BID × 17 days, day 0 after grouping): 220.5 ± 43.7 mm3
- Tumor Volume ([3]; 1 mg/kg i.g. BID × 17 days, day 3): 244.9 ± 82.4 mm3
- Tumor Volume ([3]; 1 mg/kg i.g. BID × 17 days, day 6): 483.8 ± 252.8 mm3
- Tumor Volume ([3]; 1 mg/kg i.g. BID × 17 days, day 9): 759.7 ± 401.1 mm3
- Tumor Volume ([3]; 1 mg/kg i.g. BID × 17 days, day 12): 1234.4 ± 582.9 mm3
- Tumor Volume ([3]; 1 mg/kg i.g. BID × 17 days, day 15): 2056.6 ± 1094.9 mm3
- Tumor Volume ([3]; 1 mg/kg i.g. BID × 17 days, day 18): 2868.8 ± 1372.9 mm3
- Tumor Volume ([3]; 1 mg/kg i.g. BID × 17 days, day 21, drug withdrawal observation): 4176.0 ± 1871.1 mm3
- T/C (%) ([3]; 1 mg/kg i.g. BID): 124.5%
- Tumor Volume at Dosing Endpoint (mm^3) ([3]; 1 mg/kg i.g. BID): 2868.8 ± 1372.9 mm^3
- Fold Change in Tumor Volume ([3]; 1 mg/kg i.g. BID): 12.80 ± 4.95
- Tumor Volume at Day 0 (mm^3) ([3]; 3 mg/kg group): 244.1 ± 17.1 mm^3
- Tumor Volume ([3]; 3 mg/kg i.g. BID × 17 days, day 0 after grouping): 244.1 ± 17.1 mm3
- Tumor Volume ([3]; 3 mg/kg i.g. BID × 17 days, day 3): 205.3 ± 26.0 mm3
- Tumor Volume ([3]; 3 mg/kg i.g. BID × 17 days, day 6): 147.7 ± 56.5 mm3
- Tumor Volume ([3]; 3 mg/kg i.g. BID × 17 days, day 9): 140.1 ± 62.3 mm3
- Tumor Volume ([3]; 3 mg/kg i.g. BID × 17 days, day 12): 112.7 ± 46.9 mm3
- Tumor Volume ([3]; 3 mg/kg i.g. BID × 17 days, day 15): 125.4 ± 58.9 mm3
- Tumor Volume ([3]; 3 mg/kg i.g. BID × 17 days, day 18): 150.4 ± 77.2 mm3
- Tumor Volume ([3]; 3 mg/kg i.g. BID × 17 days, day 21, drug withdrawal observation): 199.3 ± 93.7 mm3
- Tumor Volume ([3]; 3 mg/kg i.g. BID × 17 days, day 23, drug withdrawal observation): 271.2 ± 131.7 mm3
- Tumor Volume ([3]; 3 mg/kg i.g. BID × 17 days, day 26, drug withdrawal observation): 604.1 ± 328.5 mm3
- Tumor Volume ([3]; 3 mg/kg i.g. BID × 17 days, day 29, drug withdrawal observation): 887.6 ± 407.9 mm3
- Tumor Volume ([3]; 3 mg/kg i.g. BID × 17 days, day 32, drug withdrawal observation): 1209.2 ± 513.6 mm3
- Tumor Volume ([3]; 3 mg/kg i.g. BID × 17 days, day 35, drug withdrawal observation): 1645.0 ±560.6 mm3
- Tumor Volume ([3]; 3 mg/kg i.g. BID × 17 days, day 38, drug withdrawal observation): 2352.0 ± 963.1 mm3
- T/C (%) ([3]; 3 mg/kg i.g. BID): 6.03%
- TGI (%) ([3]; 3 mg/kg i.g. BID): 93.97%
- Tumor Volume at Dosing Endpoint (mm^3) ([3]; 3 mg/kg i.g. BID): 150.4 ± 77.2 mm^3
- Fold Change in Tumor Volume ([3]; 3 mg/kg i.g. BID): 0.62 ± 0.33
- Tumor Volume at Day 0 (mm^3) ([3]; 10 mg/kg group): 234.5 ± 33.6 mm^3
- Tumor Volume ([3]; 10 mg/kg i.g. BID × 17 days, day 0 after grouping): 234.5 ± 33.6 mm3
- Tumor Volume ([3]; 10 mg/kg i.g. BID × 17 days, day 3): 187.9 ± 44.7 mm3
- Tumor Volume ([3]; 10 mg/kg i.g. BID × 17 days, day 6): 98.7 ± 28.9 mm3
- Tumor Volume ([3]; 10 mg/kg i.g. BID × 17 days, day 9): 47.9 ± 29.8 mm3
- Tumor Volume ([3]; 10 mg/kg i.g. BID × 17 days, day 12): 24.5 ± 14.9 mm3
- Tumor Volume ([3]; 10 mg/kg i.g. BID × 17 days, day 15): 10.9 ± 5.1 mm3
- Tumor Volume ([3]; 10 mg/kg i.g. BID × 17 days, day 18): 8.8 ± 6.1 mm3
- Tumor Volume ([3]; 10 mg/kg i.g. BID × 17 days, day 21, drug withdrawal observation): 14.7 ± 10.1 mm3
- Tumor Volume ([3]; 10 mg/kg i.g. BID × 17 days, day 23, drug withdrawal observation): 16.6 ± 9.7 mm3
- Tumor Volume ([3]; 10 mg/kg i.g. BID × 17 days, day 26, drug withdrawal observation): 18.1 ± 11.5 mm3
- Tumor Volume ([3]; 10 mg/kg i.g. BID × 17 days, day 29, drug withdrawal observation): 43.9 ± 37.3 mm3
- Tumor Volume ([3]; 10 mg/kg i.g. BID × 17 days, day 32, drug withdrawal observation): 92.2 + 101.2 mm3
- Tumor Volume ([3]; 10 mg/kg i.g. BID × 17 days, day 35, drug withdrawal observation): 214.8 + 254.9 mm3
- Tumor Volume ([3]; 10 mg/kg i.g. BID × 17 days, day 38, drug withdrawal observation): 347.4 + 445.9 mm3
- T/C (%) ([3]; 10 mg/kg i.g. BID): 0.39%
- TGI (%) ([3]; 10 mg/kg i.g. BID, TGI = [1 - RTV(treatment group) / RTV(control group)] × 100%): 99.61%
- Tumor Volume at Dosing Endpoint (mm^3) ([3]; 10 mg/kg i.g. BID): 8.8 ± 6.1 mm^3
- Fold Change in Tumor Volume ([3]; 10 mg/kg i.g. BID): 0.04 ± 0.03
- anti-tumor efficacy compared to the high-dose GDC-0449 (10 mg/kg) group ([3]; high-dose (10 mg/kg)): significantly superior
- inhibitory effect on tumor growth versus vehicle control group ([3]; low dose (1 mg/kg)): did not show a significant inhibitory effect
- recurrent tumor volume compared with the GDC-0449 group at the same time ([3]; medium and high-dose group, post-treatment observation period): significantly lower
- anti-tumor efficacy compared to the high-dose GDC-0449 (10 mg/kg) group ([3]; medium-dose (3 mg/kg)): significantly superior
- abnormal behaviors or animal deaths during the administration period [4]: no abnormal behaviors or animal deaths
- AUC(0-inf) (in vivo [5]): 16700 ng·h/mL
- AUC(0-t) (in vivo [5]): 7500 ng·h/mL
- Cmax (in vivo [5]): 2410 ng/mL
- MRT (in vivo [5]): 15.6 h
- Tmax (in vivo [5]): 0.25 h
- half-life (in vivo [5]): 12.4 h
- moisture adsorption ([6]; 25°C/80% RH, listed as fumarate crystal form F of the compound of formula (I)): 0.3%
- Water adsorption (25°C/80%RH) ([6]; 25°C/80%RH): 0.3
- Mean Body Weight at Day 0 ([7]; 1 mg/kg group): 23.9 ± 3.1 g
- Body Weight Change Rate (%) ([7]; 1 mg/kg i.g. BID): 17.2%
- Mean Body Weight at Dosing Endpoint ([7]; 1 mg/kg i.g. BID): 28.0 ± 2.2 g
- Mean Body Weight at Day 0 ([7]; 3 mg/kg group): 24.6 ± 1.8 g
- Body Weight Change Rate (%) ([7]; 3 mg/kg i.g. BID): 8.5%
- Mean Body Weight at Dosing Endpoint ([7]; 3 mg/kg i.g. BID): 26.7 ± 2.2 g
- Mean Body Weight at Day 0 ([7]; 10 mg/kg group): 22.4 ± 2.1 g
- Body Weight Change Rate (%) ([7]; 10 mg/kg i.g. BID): 13.8%
- Mean Body Weight at Dosing Endpoint ([7]; 10 mg/kg i.g. BID): 25.5 ± 1.7 g
- impact on the body weight of tumor-bearing mice during the treatment period ([7]; administered doses, i.g. BID × 17 days): no significant impact
- solubility at 1 h [8, 11]: 3600 µg/mL
- solubility at 2 h [8, 11]: 3500 µg/mL
- solubility at 4 h [8, 11]: 3600 µg/mL
- solubility at 24 h [8, 11]: 3500 µg/mL
- solubility at 1 h [8, 12]: 2500 µg/mL
- solubility at 2 h [8, 12]: 2800 µg/mL
- solubility at 4 h [8, 12]: 3100 µg/mL
- solubility at 24 h [8, 12]: 3100 µg/mL
- solubility at 1 h [8, 13]: 220 µg/mL
- solubility at 2 h [8, 13]: 210 µg/mL
- solubility at 4 h [8, 13]: 230 µg/mL
- solubility at 24 h [8, 13]: 210 µg/mL
- solubility at 1 h [8, 14]: 110 µg/mL
- solubility at 2 h [8, 14]: 130 µg/mL
- solubility at 4 h [8, 14]: 140 µg/mL
- solubility at 24 h [8, 14]: 150 µg/mL
- AUC(0-t) at 24 h (in vivo [9]): 14300 ng·h/mL
- Cmax (in vivo [9]): 2850 ng/mL
- bioavailability (in vivo [9]): 97.5%
- thermodynamic stability among anhydrous crystal forms A, B, C and F [10]: most thermodynamically stable
